Results on 3 compounds are retold here after patent US9346795B2, “Substituted sulfonamides useful as antiapoptotic Bcl inhibitors” (Bristol-Myers Squibb Company, priority 2011, dated 2016).

Molecules are shown by their SMILES. pIC50: −log10 of the molar value.

One assay has as its target Bcl-xL (Homo sapiens (Human), UniProt Q07817). The assay is described as follows: Bcl-xL/Bim Fluorescence Resonance Energy Transfer Assay (FRET). The format is binding. A digest of the protocol:
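Biotin-Bcl-xL was incubated with Bim and compound at eleven concentrations for 60 min at room temperature. Streptavidin-terbium detection was then added for 30 min in the dark, and FRET was read. IC50 values were obtained by non-linear regression.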

A further assay concerns the target Bcl-2 (Homo sapiens (Human), UniProt P10415). In words: Bcl-2/Bim Fluorescence Polarization Assay (FPA). The format is binding.

Sequence of Bcl-xL (Q07817 whole entry): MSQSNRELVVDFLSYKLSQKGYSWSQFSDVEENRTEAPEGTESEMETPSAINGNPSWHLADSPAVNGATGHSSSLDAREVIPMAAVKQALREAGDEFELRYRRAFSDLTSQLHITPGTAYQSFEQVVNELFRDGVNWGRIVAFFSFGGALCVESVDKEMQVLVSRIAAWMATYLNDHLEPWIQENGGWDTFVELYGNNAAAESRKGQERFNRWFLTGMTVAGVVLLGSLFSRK
Sequence of Bcl-2 (P10415 whole entry): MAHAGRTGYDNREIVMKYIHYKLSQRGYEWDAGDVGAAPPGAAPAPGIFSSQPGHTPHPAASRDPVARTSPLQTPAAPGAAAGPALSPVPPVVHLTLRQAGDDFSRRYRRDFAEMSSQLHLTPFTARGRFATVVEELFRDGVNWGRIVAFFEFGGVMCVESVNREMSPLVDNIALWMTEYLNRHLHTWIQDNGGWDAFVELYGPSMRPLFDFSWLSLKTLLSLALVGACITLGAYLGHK

Regarding `CCCCN(Cc1ccc(Cl)c(Cl)c1)c1ncc(Cl)c(-c2ccc(C(=O)NS(=O)(=O)c3ccc4cccc(Cl)c4c3)cc2C(=O)N2CCc3ccccc3C2)n1` [Example 322, 4-(2-(Butyl (3,4-dichlorobenzyl)amino)-5-chloropyrimidin-4-yl)-N-(8-chloronaphthalen-2-ylsulfonyl)-3-(1,2,3,4-tetrahydroisoquinoline-2-carbonyl)benzamide], the pIC50 – broadly, the IC50 on a negative log10 scale, so that one unit is a factor of ten – is 6.80 on Bcl-xL and 8.00 on Bcl-2.

As to `CCCN(CCC)c1ncc(Cl)c(-c2ccc(C(=O)NS(=O)(=O)c3ccc4cccc(Cl)c4c3)cc2C(=O)N2Cc3ccccc3C[C@H]2CO)n1` [Example 328, 4-(5-Chloro-2-(dipropylamino)pyrimidin-4-yl)-N-(8-chloronaphthalen-2-ylsulfonyl)-3-((S)-3-(hydroxymethyl)-1,2,3,4-tetrahydroisoquinoline-2-carbonyl)benzamide], the pIC50 against Bcl-xL is 8.00; against Bcl-2 it was 8.06.

For the compound `CCCN(CCC)c1ncc(Cl)c(-c2ccc(C(=O)NS(=O)(=O)c3ccc4cccc(Cl)c4c3)cc2C(=O)N2Cc3ccccc3C[C@H]2CN)n1` [Example 329, 3-((S)-3-(Aminomethyl)-1,2,3,4-tetrahydroisoquinoline-2-carbonyl)-4-(5-chloro-2-(dipropylamino)pyrimidin-4-yl)-N-(8-chloronaphthalen-2-ylsulfonyl)benzamide], the pIC50 against Bcl-xL was 7.70; at Bcl-2 it was 8.29.
